Reference: patent US8058281B2, “Use of adenine-derived compounds for the treatment of lupus” (Centre National de la Recherche Scientifique (CNRS), priority 2006, dated 2011)
“And” between values parts separate entries of the source, which are not always exact repeats. Equal values may be shown once. Read-outs that look alike come from different tables or passages of the source.

How the values were obtained:
[1] = test system: TNF-α secretion by PBMCs of a lupus patient; assay: Basal TNF-α secretion by mononuclear blood cells of a lupus patient; type: cell-based; conditions: Homo sapiens, PBMC, no LPS stimulation, one lupus patient, read-out: inhibition of spontaneous (basal) TNF-α secretion
Method: FIG. 6: Inhibition of TNF-α secretion by PBMCs of a lupus patient after incubation with NCS 613. The blood cells of a lupus patient (LED2) were incubated in the presence or absence of NCS 613 (10 μM). Supernatants were recovered after 24 hours of culture and the level of TNF-α in the supernatants was measured by ELISA. The results are given as TNF-α concentration after incubation in the presence or absence of NCS 613 and the percentage inhibition of TNF-α secretion after incubation with NCS 613 is shown. Error bars show the standard deviation of duplicates.
(§1) The blood of 5 patients with lupus, rheumatoid arthritis or Sjögren's syndrome was collected directly in heparinated tubes. Mononuclear blood cells were separated by centrifugation (30 min at 600 g) on a Ficoll gradient. Cells were then grown at a concentration of 2×10^5 cells per well in the presence or absence of compound NCS 613 (10 μM) for 45 minutes then stimulated with LPS. Supernatants were recovered after 24 hours of culture and the level of TNF-α in supernatants was measured by double sandwich ELISA (BD Biosciences).
So the ability of compound NCS 613 to inhibit basal TNF-α secretion was studied in blood cells of this patient.

PDE5 = biological target: T1, PDE5 (Bos taurus, UniProt Q28156); assay: PDE5 inhibition, radioenzyme assay, enzyme isolated from vascular tissue; type: biochemical, bovine; conditions: PDEs isolated from vascular tissue; 1 μM substrate
T1 construct: Effects of compound NCS 613 on PDEs isolated; from tissue; host or cells: bovine aortic media, cytosol, DEAE-Sephacel fraction
Method: (§2) Cyclic nucleotides phosphodiesterase activity was measured by a radioenzyme method using tritiated cyclic AMP or GMP (1 μM) as substrate (Lugnier C. et al., Biochem. Pharmacol. (1986) 35, 1743-1751; Keravis T et al., Meth. Mol. Biol. (2005) 307, 63-74.). Tritiated adenosine or guanosine monophosphate formed by hydrolysis of the labelled cyclic nucleotide was transformed, in a second incubation with excess nucleotidase, into tritiated adenosine or guanosine. The formed nucleoside was separated from nucleotides by anion exchange resin chromatography. The radioactivity of the nucleoside was measured by liquid scintillation. […]
(§3) A 3 g piece of bovine aortic media was chopped up with scissors, homogenised using an Ultra-Turrex then using a glass/glass Potter in 7 volumes/weight of buffer A containing a cocktail of protease inhibitors (20 mM Tris-HCl, 0.25 M saccharose, 2 mM magnesium acetate, 1 mM dithiothreitol, 5 mM EGTA, 2000 U/ml aprotinine, 10 mg/l leupeptine and 10 mg/l soy-bean trypsin inhibitor). […] The column was washed until no absorption at 280 nm could be detected, then elution was with a linear NaCl gradient (0-0.5 M) in buffer B. 3 ml fractions were collected and enzymatic activity was measured under various conditions so as to determine the peaks of enzymatic activity contained in the fractions for, in the order of elution, PDE1, PDE5, PDE3 and PDE4. […]

recombinant PDE4B = recombinant PDE4B (Homo sapiens, UniProt Q07343); assay: Inhibition of recombinant PDE4 subtype PDE4B; type: biochemical
Method: (§4) Cyclic nucleotides phosphodiesterase activity was measured by a radioenzyme method using tritiated cyclic AMP or GMP (1 μM) as substrate (Lugnier C. et al., Biochem. Pharmacol. (1986) 35, 1743-1751; Keravis T et al., Meth. Mol. Biol. (2005) 307, 63-74.). Tritiated adenosine or guanosine monophosphate formed by hydrolysis of the labelled cyclic nucleotide was transformed, in a second incubation with excess nucleotidase, into tritiated adenosine or guanosine. The formed nucleoside was separated from nucleotides by anion exchange resin chromatography. The radioactivity of the nucleoside was measured by liquid scintillation. Enzyme incubations were carried out under conditions in which there was no more than 15% of substrate hydrolysis, and each point was repeated.
(§5) The concentration of the substance causing 50% inhibition of enzymatic activity (IC50) at 1 μM substrate was calculated by non-linear regression (Prism, GraphPad) with the help of the results obtained for compound concentrations that varied as the molecule concentration was increased from 1 nM to 300 μM. Because of solubility problems, the maximum concentration used in this study was limited to 300 μM.

MRL/lpr mice [2] = assay: Proteinuria in MRL/lpr lupus mice; type: in vivo, mouse
Method: FIG. 1: Effect of compound NCS 613 and denbufylline on proteinuria in MRL/lpr mice. Up to the age of 13 weeks, the mice received 4 administrations either of 30 μg of compound NCS 613 or of 100 μg of denbufylline.
(§6) Pre-autoimmune female MRL/lpr mice aged 5 weeks received by intravenous route, either buffered saline (PBS; control group, 100 μl per mouse), or compound NCS 613, (30 μg/100 μl per mouse, diluted in saline solution containing 10% ethanol), or denbufylline (100 μg/100 μl per mouse, diluted in saline solution containing 10% ethanol). The […] groups were composed of 10 mice each. The administrations (4 in number) were carried out at the ages of 5, 7, 9 and 13 weeks, and mice were monitored regularly (observations, proteinuria test by Albutix strip, blood tests).

PDE2 = biological target: T2, PDE2 (Homo sapiens, UniProt O00408); assay: PDE2 inhibition, radioenzyme assay, enzyme isolated from platelets; type: biochemical; conditions: 1 μM substrate
T2 construct: from tissue; host or cells: human platelets, cytosol, DEAE-Sephacel then MonoQ HPLC
Method: as §4
Washed human platelets from the French Blood Bank (Etablissement Francais du Sang) in Strasburg were left to stand, then the sedimented cells were homogenised in buffer A and centrifuged at 105.000 g for 1 hour. The supernatant was subject to chromatography following the procedure already described for the aortic media (C-2). Then the fractions rich in PDE2 (activity stimulated by 5 μM cGMP) were subject to HPLC chromatography using Pharmacia's MonoQ H/R 5×5. The fraction containing PDE2 was aliquoted and stored at −80° C. (Kameni Tcheudji J. F et al, J. Mol. Biol. (2001) 310, […].). […]

MRL/lpr mice [3] = assay: Survival of MRL/lpr lupus mice; type: in vivo, mouse; conditions: for effect on survival / life expectancy of MRL/lpr mice: 4 i.v. administrations (NCS 613 30 μg, denbufylline 100 μg), followed to 26 weeks
Method: FIG. 2: Effect of compound NCS 613 (A) and denbufylline (B) on survival of MRL/lpr lupus mice. Up to the age of 13 weeks, the mice received 4 administrations either of 30 μg of compound NCS 613 or of 100 μg of denbufylline. The results are expressed in percentage survival of mice. Control mice received only PBS (phosphate buffered saline, pH 7.4) without the active ingredient.
as §6

PDE6 = PDE6 (so in the source) inhibition, radioenzyme assay, enzyme isolated from vascular tissue; type: biochemical, bovine; conditions: PDEs isolated from vascular tissue; 1 μM substrate
Method: as §2, §3

PDE1 = PDE1 inhibition, radioenzyme assay, enzyme isolated from vascular tissue; type: biochemical, bovine; conditions: PDEs isolated from vascular tissue; 1 μM substrate
Method: as §2, §3

[4] = test system: TNF-α secretion by blood cells of MRL/lpr mice; assay: TNF-α secretion by blood cells from treated mice after ex vivo LPS stimulation; type: in vivo, mouse; conditions: LPS 24 h ex vivo
Method: FIG. 3: Effect of compound NCS 613 and denbufylline on the production of TNF-α by blood cells from treated mice after LPS stimulation. TNF-α secretion by blood cells from mice having received saline solution (PBS), compound NCS 613 or denbufylline after ex vivo LPS stimulation for 24 hours was measured in the supernatants by ELISA. The error bars show the standard deviation of duplicates, and the percentage inhibition of TNF-α secretion as a function of the secretion measured in the PBS group is shown. The figures refer to experiments carried out on mice aged 11 (A) and 14 (B) weeks.
as §6
TNF-α secretion was measured after bacterial lipopolysaccharide (LPS) stimulation of mouse blood cells (blood pooled from the 7 mice per group). LPS cell stimulation for 24 hours generates TNF-α secretion which can then be measured in culture supernatants. Cells from the blood of the 3 groups of mice were separated on a Ficoll gradient, and then stimulated by LPS. Supernatants were collected after 24 hours of culture, and the presence of TNF-α in supernatants was measured by a double sandwich ELISA test (BD Biosciences). This experiment was carried out at different ages (11 and 14 weeks, that is 2 weeks after the 3rd administration and 1 week after the 4th administration respectively).

recombinant PDE4C = recombinant PDE4C (Homo sapiens, UniProt Q08493); assay: Inhibition of recombinant PDE4 subtype PDE4C; type: biochemical
Method: as §4, §5

recombinant PDE4D = recombinant PDE4D (Homo sapiens, UniProt Q08499); assay: Inhibition of recombinant PDE4 subtype PDE4D; type: biochemical
Method: as §4, §5

[5] = test system: TNF-α secretion by PBMCs of patients with auto-immune diseases; assay: TNF-α secretion after LPS stimulation of mononuclear blood cells of autoimmune patients; type: cell-based, human; conditions: for inhibition at 10 µM: Homo sapiens, PBMC
Method: FIG. 5. Inhibition of TNF-α secretion by compound NCS 613 after LPS stimulation of the PBMCs of patients with auto-immune diseases. Blood cells from patients with lupus (SLE), rheumatoid arthritis (RA) and Sjögren's syndrome (SS) were incubated for 45 minutes in the presence or absence of NCS 613 (10 μM), then stimulated with LPS. The supernatants were recovered after 24 hours of culture and the level of TNF-α in supernatants was measured by ELISA. The results are given in TNF-α concentration after incubation in the presence or absence of NCS 613 (A) or as inhibition of TNF-α secretion after incubation with NCS 613 (B). Error bars show the standard deviation of duplicates.
as §1

PDE4 = PDE4 inhibition, radioenzyme assay, enzyme isolated from vascular tissue; type: biochemical, bovine; conditions: PDEs isolated from vascular tissue; 1 μM substrate
Method: as §2, §3

recombinant PDE4A = recombinant PDE4A (Homo sapiens, UniProt P27815); assay: Inhibition of recombinant PDE4 subtype PDE4A; type: biochemical
Method: as §4, §5

MRL/lpr mice [6] = assay: Anti-double-stranded DNA antibodies in serum of MRL/lpr mice (ELISA); type: in vivo, mouse; conditions: for percentage of mice positive for anti-DNA Abs in serum: positive = OD > 1; for age at which first anti-DNA Ab positive mice appeared: treatment stopped at 13 weeks
Method: FIG. 4: Effect of compound NCS 613 and denbufylline on anti-double-stranded DNA Abs. The presence of Abs directed against DNA in murine serums was measured at different ages (in weeks) by ELISA. Results are shown as a percentage of positive mice. A mouse is defined as positive when the optical density (OD) measured by ELISA is greater than 1.
as §6
The presence of Abs directed against DNA in murine serums was measured at different ages by ELISA (Monneaux et al., Eur. J. Immunol. (2003) 33, 287-296; Monneaux et al, Arthritis Rheum (2004) 50, 3232-3238.). Calf thymus double-stranded DNA (Sigma) was adsorbed (100 ng/ml) on 96 well polyvinyl chloride plates (Falcon) and incubated overnight at 37° C. After three washes and a saturation step in PBS-Tween buffer containing bovine serum albumin, serums (diluted to 1/500) were incubated for one hour at 37° C. […] The absorbance was measured at 450 nm by spectrophotometry after the reaction had been stopped.

[7] = at 20 weeks of age, 4 i.v. administrations at 5, 7, 9, 13 weeks (NCS 613 30 μg, denbufylline 100 μg)
[8] = mice aged 11 weeks (2 weeks after 3rd administration)
[9] = mice aged 14 weeks (1 week after 4th administration)

T2 sequence (O00408 whole entry): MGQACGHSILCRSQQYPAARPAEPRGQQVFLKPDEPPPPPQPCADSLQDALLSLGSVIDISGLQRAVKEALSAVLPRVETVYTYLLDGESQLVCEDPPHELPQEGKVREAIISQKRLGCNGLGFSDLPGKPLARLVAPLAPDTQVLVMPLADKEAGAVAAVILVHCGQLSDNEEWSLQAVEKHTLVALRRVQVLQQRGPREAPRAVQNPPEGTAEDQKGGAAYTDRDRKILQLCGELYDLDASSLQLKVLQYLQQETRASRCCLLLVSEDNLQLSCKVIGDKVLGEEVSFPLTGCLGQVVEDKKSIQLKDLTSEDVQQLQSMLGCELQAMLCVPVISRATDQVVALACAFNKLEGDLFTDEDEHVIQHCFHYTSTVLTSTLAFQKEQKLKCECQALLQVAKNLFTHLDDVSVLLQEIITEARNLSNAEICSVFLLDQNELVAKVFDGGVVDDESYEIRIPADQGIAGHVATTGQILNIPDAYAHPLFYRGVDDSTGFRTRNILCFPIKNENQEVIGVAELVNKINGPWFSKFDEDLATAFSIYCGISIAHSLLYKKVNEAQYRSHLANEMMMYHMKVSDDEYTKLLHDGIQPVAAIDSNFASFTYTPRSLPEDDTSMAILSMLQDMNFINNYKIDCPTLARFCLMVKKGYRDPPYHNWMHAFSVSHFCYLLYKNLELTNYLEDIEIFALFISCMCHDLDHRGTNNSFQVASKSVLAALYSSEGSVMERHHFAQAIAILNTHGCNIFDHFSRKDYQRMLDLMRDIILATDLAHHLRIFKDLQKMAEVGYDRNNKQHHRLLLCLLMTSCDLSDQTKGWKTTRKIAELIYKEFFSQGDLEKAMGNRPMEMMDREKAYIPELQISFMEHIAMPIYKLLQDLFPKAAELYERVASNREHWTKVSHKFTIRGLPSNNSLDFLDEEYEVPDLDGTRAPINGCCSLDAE
recombinant PDE4B, sequence (Q07343 whole entry, species assumed): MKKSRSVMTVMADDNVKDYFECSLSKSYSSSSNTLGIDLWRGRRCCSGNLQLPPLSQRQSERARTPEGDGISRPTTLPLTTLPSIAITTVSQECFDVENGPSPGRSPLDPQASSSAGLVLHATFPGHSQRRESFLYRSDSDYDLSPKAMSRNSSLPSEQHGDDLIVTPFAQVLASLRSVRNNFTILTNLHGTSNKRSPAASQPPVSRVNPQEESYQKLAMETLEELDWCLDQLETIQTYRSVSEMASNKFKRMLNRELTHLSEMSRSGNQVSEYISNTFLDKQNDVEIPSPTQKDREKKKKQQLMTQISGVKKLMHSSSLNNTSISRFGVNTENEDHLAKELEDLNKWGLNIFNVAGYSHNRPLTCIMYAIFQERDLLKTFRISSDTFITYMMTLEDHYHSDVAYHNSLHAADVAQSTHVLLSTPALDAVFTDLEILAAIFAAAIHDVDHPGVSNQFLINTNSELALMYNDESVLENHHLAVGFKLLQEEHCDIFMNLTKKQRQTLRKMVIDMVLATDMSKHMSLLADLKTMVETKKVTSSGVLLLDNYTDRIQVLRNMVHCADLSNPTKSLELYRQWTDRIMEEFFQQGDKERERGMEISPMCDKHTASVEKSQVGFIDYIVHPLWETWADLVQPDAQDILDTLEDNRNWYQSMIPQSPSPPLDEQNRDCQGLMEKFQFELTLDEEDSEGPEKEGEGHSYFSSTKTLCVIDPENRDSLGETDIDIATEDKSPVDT
recombinant PDE4D, sequence (Q08499 whole entry, species assumed): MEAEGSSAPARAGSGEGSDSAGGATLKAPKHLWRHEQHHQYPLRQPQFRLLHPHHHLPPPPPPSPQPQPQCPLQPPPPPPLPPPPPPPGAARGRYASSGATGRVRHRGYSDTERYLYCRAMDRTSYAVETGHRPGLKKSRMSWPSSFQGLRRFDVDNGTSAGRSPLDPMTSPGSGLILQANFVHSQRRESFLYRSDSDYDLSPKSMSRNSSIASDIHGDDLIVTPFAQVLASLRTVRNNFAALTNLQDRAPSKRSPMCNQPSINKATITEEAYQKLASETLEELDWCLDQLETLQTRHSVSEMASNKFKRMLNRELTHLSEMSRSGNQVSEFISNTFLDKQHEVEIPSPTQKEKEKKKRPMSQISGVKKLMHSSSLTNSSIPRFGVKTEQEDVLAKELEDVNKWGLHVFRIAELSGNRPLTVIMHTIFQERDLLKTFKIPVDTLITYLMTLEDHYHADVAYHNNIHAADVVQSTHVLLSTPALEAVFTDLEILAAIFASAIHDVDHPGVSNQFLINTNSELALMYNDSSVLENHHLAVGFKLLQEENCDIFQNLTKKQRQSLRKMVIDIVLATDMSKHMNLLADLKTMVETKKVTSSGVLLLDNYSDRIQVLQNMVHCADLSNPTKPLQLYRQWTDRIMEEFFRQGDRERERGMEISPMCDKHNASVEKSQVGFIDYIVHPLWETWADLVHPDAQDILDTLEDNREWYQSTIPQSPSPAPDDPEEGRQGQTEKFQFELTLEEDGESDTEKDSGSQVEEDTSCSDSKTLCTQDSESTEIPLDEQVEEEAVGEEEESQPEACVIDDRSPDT
recombinant PDE4C, sequence (Q08493 whole entry, species assumed): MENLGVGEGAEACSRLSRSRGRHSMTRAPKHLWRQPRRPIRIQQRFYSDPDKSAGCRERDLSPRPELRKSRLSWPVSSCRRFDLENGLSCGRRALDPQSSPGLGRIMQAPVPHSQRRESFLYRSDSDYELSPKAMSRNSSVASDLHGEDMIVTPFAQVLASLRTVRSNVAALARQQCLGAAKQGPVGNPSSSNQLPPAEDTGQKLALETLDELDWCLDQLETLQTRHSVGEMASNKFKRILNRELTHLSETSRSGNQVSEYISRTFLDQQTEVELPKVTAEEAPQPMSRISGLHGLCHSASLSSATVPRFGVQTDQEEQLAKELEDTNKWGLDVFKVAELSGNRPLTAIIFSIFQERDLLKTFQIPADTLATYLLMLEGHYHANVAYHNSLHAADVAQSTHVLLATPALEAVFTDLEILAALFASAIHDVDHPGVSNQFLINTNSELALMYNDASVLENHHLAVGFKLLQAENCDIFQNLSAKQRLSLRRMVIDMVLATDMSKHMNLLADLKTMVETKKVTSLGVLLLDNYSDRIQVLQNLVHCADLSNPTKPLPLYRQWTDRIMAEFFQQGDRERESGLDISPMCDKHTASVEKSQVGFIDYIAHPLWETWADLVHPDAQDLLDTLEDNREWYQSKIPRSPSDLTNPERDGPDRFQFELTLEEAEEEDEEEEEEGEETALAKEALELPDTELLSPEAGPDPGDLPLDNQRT
recombinant PDE4A, sequence (P27815 whole entry, species assumed): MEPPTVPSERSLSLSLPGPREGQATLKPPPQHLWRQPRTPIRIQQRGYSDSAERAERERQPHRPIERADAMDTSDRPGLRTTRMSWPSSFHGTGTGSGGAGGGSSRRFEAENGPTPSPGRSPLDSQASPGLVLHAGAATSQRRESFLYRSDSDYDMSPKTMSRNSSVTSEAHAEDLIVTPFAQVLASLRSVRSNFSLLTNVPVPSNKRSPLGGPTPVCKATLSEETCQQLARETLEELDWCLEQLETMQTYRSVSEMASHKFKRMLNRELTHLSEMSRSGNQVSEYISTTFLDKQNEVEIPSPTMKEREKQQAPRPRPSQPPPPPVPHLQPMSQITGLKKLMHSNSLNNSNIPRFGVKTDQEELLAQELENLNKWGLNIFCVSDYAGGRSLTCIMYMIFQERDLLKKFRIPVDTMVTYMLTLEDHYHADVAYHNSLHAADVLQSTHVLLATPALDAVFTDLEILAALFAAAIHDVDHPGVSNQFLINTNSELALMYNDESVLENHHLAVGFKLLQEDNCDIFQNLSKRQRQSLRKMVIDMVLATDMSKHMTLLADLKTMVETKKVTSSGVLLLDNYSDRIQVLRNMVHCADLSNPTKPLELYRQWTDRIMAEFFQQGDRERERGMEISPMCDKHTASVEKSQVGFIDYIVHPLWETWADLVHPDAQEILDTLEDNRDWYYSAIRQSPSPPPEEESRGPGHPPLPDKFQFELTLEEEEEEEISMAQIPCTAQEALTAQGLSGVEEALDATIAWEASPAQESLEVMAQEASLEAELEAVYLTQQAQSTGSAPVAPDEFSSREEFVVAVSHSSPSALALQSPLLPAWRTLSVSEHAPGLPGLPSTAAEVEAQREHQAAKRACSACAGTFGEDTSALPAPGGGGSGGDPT

Compound	IC50 (PDE5) [µM]	percentage of mice with proteinuria detected (MRL/lpr mice [2]; [7])	IC50 (PDE2) [µM]	effect on survival / life expectancy of MRL/lpr mice (MRL/lpr mice [3])	IC50 (PDE1) [µM]	inhibition percentage of TNF-α secretion vs PBS control group [4, 8]	inhibition percentage of TNF-α secretion vs PBS control group [4, 9]	IC50 (PDE4) [µM]	age at which first anti-DNA Ab positive mice appeared (MRL/lpr mice [6]) [weeks]	also measured
CNc1nc(C(F)(F)F)nc2c1ncn2Cc1ccccc1F [NCS 613, 9-(2-fluorobenzyl)-N(6)-methyl-2-trifluoromethyladenine]	4.7	50%	24	markedly prolongs the life expectancy	39	44%	54%	0.042	20	inhibition at 10 µM [1]: 67%; IC50 (recombinant PDE4B): 0.05 µM; percentage of mice with proteinuria detected (MRL/lpr mice [2]; at 14 weeks of age, 4 i.v. administrations at 5, 7, 9, 13 weeks (NCS 613 30 μg)): 10%; mortality (MRL/lpr mice [3]; at 21 weeks of age, 4 i.v. administrations of 30 μg): 30%; IC50 (PDE6): > 300 µM; IC50 (recombinant PDE4C): 0.0014 µM; IC50 (recombinant PDE4D): 0.014 µM; inhibition percentage of TNF-α secretion by mononuclear blood cells of lupus (SLE) patients, individual patients ([5]; 10 μM, LPS stimulation, 3 lupus patients): 69% and 91% and 98%; inhibition at 10 µM ([5]; LPS stimulation, mean of 3 patients, read-out: mean inhibition percentage of TNF-α secretion by mononuclear blood cells of lupus (SLE) patients): 86%; inhibition at 10 µM ([5]; patients with SLE, RA, Sjögren's syndrome, read-out: inhibition of TNF-α production by LPS-stimulated blood cells of autoimmune patients): 70 to 98%; IC50 (recombinant PDE4A): 0.043 µM; percentage of mice positive for anti-DNA Abs in serum (MRL/lpr mice [6]; at 20 weeks of age): 20%; percentage of mice positive for anti-DNA Abs in serum (MRL/lpr mice [6]; at 26 weeks of age, 13 weeks after end of treatment): 50%
CCCCn1c(=O)c2c(ncn2CC(C)=O)n(CCCC)c1=O [Denbufylline, denbufylline, reference compound]	5.4	equivalent to that of control mice	208	no acknowledged effect on mouse survival	33	Equivalent results	even greater than that obtained with compound NCS 613	0.76	14	age at which mortality begins (MRL/lpr mice [3]; 4 i.v. administrations of 100 μg): 15 weeks; IC50 PDE6 (PDE6): n.s
